# Where a name gives a salt, the structure may show the parent alone.
# Columns and labels:
# [1] = Vitamin contents in transfusion fluid containers of Examples 4 and 5 after autoclaving and 40° C. four-month storage, bioassay (vitamin B12, biotin) or HPLC (other vitamins); type: physicochemical
# Experimental: In a holder produced from a three-layered film (the thickness of each layer: 10 μm) in which the outer and the inner layers are made of polyethylene and the intermediate layer is made of ethylene.tetracyclododecene copolymer (trade name: Apel, product of Mitsui Chemicals, Inc.), solution (C) (4 ml) was charged and the inlet was melt-sealed. In a two-compartment container, the prepared holder was attached to one of the compartments. […] The above-described transfusion fluid containers in Examples 4 and 5 were allowed to stand at 40° C. for four months after autoclaving. Thereafter, the contents of vitamins in the containers were measured through a bioassay according to Pharmacopoeia of Japan (for vitamin B12 and biotin) or through HPLC (for other vitamins). The content of each vitamin is represented by a percentage (%) of the initially incorporated amount.
# [2] = Vitamin content of solution (C) in polyolefin holders after autoclaving and storage at 40° C. for four months, measured through HPLC (Example 3); type: physicochemical
# Experimental: Solution (C) (4 ml) prepared in Example 1 was charged into each of holders made of the materials shown in Table 3, to thereby obtain a holder which contains a solution of vitamin D3. Each of these holders containing a solution of vitamin D3 was subjected to autoclaving and wrapped in a nylon multi-layered-film bag together with a deoxidizing agent (trade name: Ageless, product of Mitsubishi Gas Chem. Co., Inc.). The thus-wrapped holders were allowed to stand at 40° C. for four months. Thereafter, the content of each vitamin in each holder was measured through HPLC. The content of each vitamin is represented by a percentage (%) of the initially incorporated amount.
# [3] = Example 4 transfusion fluid container, 40° C., 4 months
# [4] = Example 4 transfusion fluid container, immediately after sterilization
# [5] = Example 5 transfusion fluid container, 40° C., 4 months
# [6] = Example 5 transfusion fluid container, immediately after sterilization
# [7] = holder No. 1, polyethylene, 30 μm, resin 7.4 cm^3 per μmol vitamin D, 40° C., 4 months
# [8] = holder No. 1, polyethylene, 30 μm, resin 7.4 cm^3 per μmol vitamin D, after sterilization
# [9] = holder No. 2, polyethylene, 100 μm, resin 18.5 cm^3 per μmol vitamin D, 40° C., 4 months
# [10] = holder No. 2, polyethylene, 100 μm, resin 18.5 cm^3 per μmol vitamin D, after sterilization
# [11] = holder No. 3, polypropylene, 30 μm, resin 7.4 cm^3 per μmol vitamin D, 40° C., 4 months
# [12] = holder No. 3, polypropylene, 30 μm, resin 7.4 cm^3 per μmol vitamin D, after sterilization
# [13] = holder No. 4, polyethylene, 250 μm, resin 123.2 cm^3 per μmol vitamin D, 40° C., 4 months
# [14] = holder No. 4, polyethylene, 250 μm, resin 123.2 cm^3 per μmol vitamin D, after sterilization
# [15] = holder No. 5, polypropylene, 250 μm, resin 123.2 cm^3 per μmol vitamin D, 40° C., 4 months
# [16] = holder No. 5, polypropylene, 250 μm, resin 123.2 cm^3 per μmol vitamin D, after sterilization
"Vitamin content, percentage (%) of the initially incorporated amount [1, 3] [%]","Vitamin content, percentage (%) of the initially incorporated amount [1, 4] [%]","Vitamin content, percentage (%) of the initially incorporated amount [1, 5] [%]","Vitamin content, percentage (%) of the initially incorporated amount [1, 6] [%]","Vitamin content (%) of initially incorporated amount [2, 7] [%]","Vitamin content (%) of initially incorporated amount [2, 8] [%]","Vitamin content (%) of initially incorporated amount [2, 9] [%]","Vitamin content (%) of initially incorporated amount [2, 10] [%]","Vitamin content (%) of initially incorporated amount [2, 11] [%]","Vitamin content (%) of initially incorporated amount [2, 12] [%]","Vitamin content (%) of initially incorporated amount [2, 13] [%]","Vitamin content (%) of initially incorporated amount [2, 14] [%]","Vitamin content (%) of initially incorporated amount [2, 15] [%]","Vitamin content (%) of initially incorporated amount [2, 16] [%]",Molecule
97.8,98.6,98.5,98.2,–,–,–,–,–,–,–,–,–,–,"NC(=O)c1cccnc1 [Nicotinamide, nicotinamide]"
84.5,87.2,83.9,86.5,80.7,91.1,81.3,90.9,81.2,90.7,78.3,89.1,77.8,88.9,"CCCCCCCCCCCCCCCC(=O)OC/C=C(C)/C=C/C=C(C)/C=C/C1=C(C)CCCC1(C)C [Vitamin A, retinol palmitate]"
83.2,86.5,84.3,85.9,90.7,94.8,91.2,96.3,91.0,95.4,90.9,94.6,91.2,95.3,"Cc1cc2nc3c(=O)[nH]c(=O)nc-3n(C[C@H](O)[C@H](O)[C@H](O)COP(=O)(O)O)c2cc1C [Vitamin B2, sodium riboflavin phosphate]"
98.3,98.7,97.5,97.8,94.3,96.2,95.4,97.1,94.2,97.3,94.8,97.5,93.1,96.8,"O=C1O[C@H]([C@@H](O)CO)C(O)=C1O [Vitamin C, ascorbic acid]"
95.1,94.9,94.8,95.3,98.3,98.7,99.7,99.4,97.3,97.6,95.6,98.2,95.3,97.6,"CC(=O)Oc1c(C)c(C)c2c(c1C)CCC(C)(CCC[C@H](C)CCC[C@H](C)CCCC(C)C)O2 (some centres unmarked) [Vitamin E, tocopherol acetate]"
95.3,96.2,95.4,95.8,91.3,95.4,90.8,94.7,91.3,96.1,89.1,94.3,88.7,93.9,"CC1=C(C/C=C(\C)CCC[C@H](C)CCC[C@H](C)CCCC(C)C)C(=O)c2ccccc2C1=O [Vitamin K, phytonadione]"

# Further lines, the molecule ahead of its results:
Molecule,"Vitamin content, percentage (%) of the initially incorporated amount [1, 3] [%]","Vitamin content, percentage (%) of the initially incorporated amount [1, 4] [%]","Vitamin content, percentage (%) of the initially incorporated amount [1, 5] [%]","Vitamin content, percentage (%) of the initially incorporated amount [1, 6] [%]","Vitamin content (%) of initially incorporated amount [2, 7] [%]","Vitamin content (%) of initially incorporated amount [2, 8] [%]","Vitamin content (%) of initially incorporated amount [2, 9] [%]","Vitamin content (%) of initially incorporated amount [2, 10] [%]","Vitamin content (%) of initially incorporated amount [2, 11] [%]","Vitamin content (%) of initially incorporated amount [2, 12] [%]","Vitamin content (%) of initially incorporated amount [2, 13] [%]","Vitamin content (%) of initially incorporated amount [2, 14] [%]","Vitamin content (%) of initially incorporated amount [2, 15] [%]","Vitamin content (%) of initially incorporated amount [2, 16] [%]"
"O=C(O)CCCC[C@@H]1SC[C@@H]2NC(=O)N[C@@H]21 [Biotin, biotin]",99.8,100.4,100.3,98.7,–,–,–,–,–,–,–,–,–,–
"Nc1nc2ncc(CNc3ccc(C(=O)N[C@@H](CCC(=O)O)C(=O)O)cc3)nc2c(=O)[nH]1 [Folic acid, folic acid]",97.5,97.8,99.1,98.3,–,–,–,–,–,–,–,–,–,–
"CC(C)(CO)[C@@H](O)C(=O)NCCCO [Panthenol, panthenol]",96.9,97.4,97.6,98.5,–,–,–,–,–,–,–,–,–,–
"Cc1ncc(CO)c(CO)c1O.Cl [Pyridoxine hydrochloride (B6), pyridoxine hydrochloride]",100.1,100.5,99.8,99.7,–,–,–,–,–,–,–,–,–,–
"Cc1ncc(C[n+]2csc(CCO)c2C)c(N)n1 [Thiamin hydrochloride (B1), thiamin hydrochloride]",87.4,93.8,86.6,93.5,–,–,–,–,–,–,–,–,–,–
cyanocobalamin [Cyanocobalamin (B12)],89.2,91.3,90.5,96.5,–,–,–,–,–,–,–,–,–,–

# — patent US6572603B1, “Vitamin d solution holder and containers for transfusions” (Otsuka Pharmaceutical Factory, Inc., priority 1998, dated 2003)
